Data: publication PMC7447754 (Nature Communications, 2020)
Where a SMILES comes first, the peptide text is derived from it.

System: H1N1 virus
Conditions: pH 4.9

CC[C@H](C)[C@H](NC(=O)[C@H](C)NC(=O)CNC(=O)[C@@H](N)CC(N)=O)C(=O)N[C@@H](CS)C(=O)N[C@@H](Cc1c[nH]c2ccccc12)C(=O)NCC(=O)N1CCC[C@H]1C(=O)N[C@@H](CS)C(=O)N1CCC[C@H]1C(=O)N[C@H](C(=O)N[C@@H](C)C(=O)N[C@@H](Cc1ccccc1)C(=O)N[C@@H](CCCNC(=N)N)C(=O)N[C@@H](CCC(N)=O)C(=O)N[C@H](C(=O)NCC(=O)N[C@@H](CC(N)=O)C(=O)N[C@@H](CS)C(=O)NCC(=O)N[C@@H](CCCNC(=N)N)C(=O)N[C@@H](Cc1ccccc1)C(=O)N[C@@H](CCCNC(=N)N)C(=O)N[C@H](C(=O)N[C@@H](CCCNC(=N)N)C(=O)N[C@@H](CS)C(=O)N[C@@H](CS)C(=O)N[C@@H](CCCNC(=N)N)C(=O)N[C@H](C(=O)N[C@@H](CCCNC(=N)N)C(=O)O)[C@@H](C)CC)C(C)C)[C@@H](C)CC)[C@@H](C)O [P9R] (H-NGAICWGPCPTAFRQIGNCGRFRVRCCRIR-OH)
inhibition of viral fusion (virus-induced hemolysis): did not inhibit viral fusion
